The IC50 is the concentration that inhibits the measured activity by half.

The subject of data set [1] is HCV replicon (Huh 5-2 [I389luc-ubi-neo-NS3-3′/5.1]). Nature of the data set: microbe, parasite or virus in culture. The class given is cell-based. The settings on record: for IC50: Hepatitis C virus, Huh-5-2, luciferase, 72 hours statin treatment; for Inhibition of luciferase expression in replicon cells (in words): FIG. 2. On the technique in general: In antiviral work, replicon cells carry a viral genome segment that copies itself.

The nature of the next data set: in vitro. The settings on record: replicon cells (lucubineo cells).
Data set [2] concerns Replicon cells. In words: cells. As to conditions: read-out: Cytostatic (IC50).
The conditions of data set [3]: 6- to 12-month course; cited from earlier work.
The subject of the next data set is HCV replicon RNA. Nature of the data set: Quantitative RT-PCR (Taqman) of replicon RNA. The class given is cell-based. As to conditions: FIG. 2A. Here is the method: Statin-treated cells in the duplicate clear plate were analysed for cytotoxicity by addition of 10 μL WST-1 reagent (Roche Biosciences) to each well and incubated for 37° C. for 60 minutes. After vigorous shaking, the plate was read at 450 nm. The supernatent was removed and the monolayer washed with PBS prior to addition 100 μL RLT lysis buffer (Qiagen RNAeasy kit) to each test well, followed by vigorous resuspension to ensure uniform lysis of all cells. Total RNA was extracted according to Qiagen RNAeasy protocols recommended by manufacturer. Briefly, 0.1 μg total RNA was reverse transcribed using random hexamers and 20% cDNA produced was used as a template in a Taqman reaction (Universal PCR Master Mix protocol p\n 43044449 Rev B).
These procedures are described in Perkin Elmer Biosystems User Bulletin 2. Briefly, the quantity of replicon RNA in a given sample was determined relative to the untreated control and normalised with respect to actin. Having established that the efficiencies of the replicon and actin PCR reactions were similar (data not shown), the relative quantity of replicon RNA was described by 2^−ΔΔCt where, ΔΔCt=ΔCt(test)−ΔCt(control) ΔCt(test)[…]−Ct(actin) and ΔCt(control)=Ct(control)−Ct(actin) Cholesterol Biosynthesis Assay
(Real-time PCR tracks product formation cycle by cycle.)

For data set [4], the system named is Replicon cells.
The test system of data set [5] is Replicon cells. As to conditions: @ 10 μM.
The test system of the next data set is EMCV IRES. In words: Green fluorescent protein assay (pIRES2-EGFP). Type of data set: cell-based, Encephalomyocarditis virus. As to conditions: atorvastatin concentrations which reduced HCV replicon activity (10 uM, FIG. 5).

Description for EMCV IRES: Replicon cells were electroporated in cytomix buffer at 10^7 cells/mL at 960 uF, 270 V with varying amounts pIRES2-EGFP. Cell viability was monitored by trypan blue staining and cell counting. Aliquots of cells (2×10^4) were plated out in clear bottomed black 96 well plates and incubated for 24 hours. The cells were rinsed with PBS and fluorescence output read using an Analyst HT (LJL Biosystems).
Impairment of this function was examined in the presence of statins. Replicon cells were transfected with varying amounts of pIRES2-EGFP in which the green fluorescent protein reporter is expressed by a EMCV IRES.

For `COCc1c(C(C)C)nc(C(C)C)c(/C=C/[C@@H](O)C[C@@H](O)CC(=O)O)c1-c1ccc(F)cc1` [Cerivastatin], the IC50 is 1.1 µM in data set [1] and 5.5 µM in the data set on Replicon cells [2]. Half-maximal inhibition in “in vitro” (IC50 at 72 h) was put at 4.9 µM.

Take Alpha interferon: in data set [3], the “Patients in whom an autoimmune condition is triggered” value is listed as “about 2%”.

In turn, `CCC(C)(C)C(=O)O[C@H]1C[C@@H](C)C=C2C=C[C@H](C)[C@H](CC[C@@H]3C[C@@H](O)CC(=O)O3)[C@H]21` [Simvastatin] returned an IC50 at 72 h in “in vitro” of 64.7 µM. Besides, the IC50 in the data set on Replicon cells [2] is 28 µM.

Take `CC[C@H](C)C(=O)O[C@H]1C[C@@H](C)C=C2C=C[C@H](C)[C@H](CC[C@@H]3C[C@@H](O)CC(=O)O3)[C@H]21` [Lovastatin]: the “Replicon RNA by RT-PCR, normalised to beta actin” value in the data set with HCV replicon RNA is “quantitative reduction of replicon RNA”. Besides, in data set [1], the “Inhibition of luciferase expression in replicon cells (in words)” value is “dose dependent inhibition” and the midpoint of inhibition, the IC50, lay at 7.9 µM. Moreover, the IC50 at 72 h in “in vitro” was 158 µM. In addition, the IC50 in the data set with Replicon cells [2] was 89.3 µM.

For the molecule `CC[C@H](C)C(=O)O[C@H]1C[C@H](O)C=C2C=C[C@H](C)[C@H](CC[C@@H](O)C[C@@H](O)CC(=O)O)[C@H]21` [Pravastatin], in data set [1], the IC50 was found to be 322 µM. The “Cytostatic, % at one concentration” value in the data set with Replicon cells [4] was 25% @ 500,000 μM.

As for `CC(C)c1c(C(=O)Nc2ccccc2)c(-c2ccccc2)c(-c2ccc(F)cc2)n1CC[C@@H](O)C[C@@H](O)CC(=O)O` (relative stereo) [Atorvastatin, [R-(R*,R*)]-2-(4-fluorophenyl)-b,d-dihydroxy-5-(1-methylethyl)-3-phenyl-4[(phenylamino)carbonyl]-IH-pyrrole-1-heptanoic acid], the “Cytotoxicity, % at one concentration” value in the data set with Replicon cells [5] was 18.3% @ 10 μM. For the same molecule, in data set [1], the “Inhibition of luciferase expression in replicon cells (in words)” value is “increased antiviral activity compared to lovastatin” and the IC50 is 4.1 µM. Besides, in the data set with EMCV IRES, the “Effect on GFP signal driven by EMCV IRES” value is reported as “no effect”. Moreover, the IC50 in the data set on Replicon cells [2] was determined as 2.5 µM.

As to `C[C@@](O)(CCO)CC(=O)O` [MVA, mevalonic acid], the “Rescue of atorvastatin inhibition of HCV replicon activity by MVA” value in data set [1] (14 μM MVA, 10 uM atorvastatin, FIG. 3A) is on record as “begins to alleviate the atorvastatin inhibition”; in data set [1] (further addition of MVA, 10 μM atorvastatin), “completely restores replicon activity”. In data set [1] (absence of statin, FIG. 3B), the “Response of control HCV replicon cells to MVA” value is “do not respond”.

These data come from patent US20050085528A1 (priority 2003, published 2005).
